Source: the NIST ThermoML archive (doi:10.1021/je060271a)
Where “and” joins values, the source holds several entries; their conditions need not be identical. Equal entries are not always repeated. Numbers after ± are expanded uncertainties.

Details: Liquid, Vibrating tube method

CCCCCC(=O)OCC(COC(=O)CCCCC)(COC(=O)CCCCC)COC(=O)CCCCC [pentaerythritol tetrahexanoate]
Details	mass density
303.16 K, 25121 kPa	1003.6 ± 1.2 kg/m3
303.16 K, 25156 kPa	1003.5 ± 1.2 kg/m3
303.16 K, 25186 kPa	1003.6 ± 1.2 kg/m3
303.16 K, 25221 kPa	1003.6 ± 1.2 kg/m3
303.16 K, 25252 kPa	1003.7 ± 1.2 kg/m3
303.16 K, 25282 kPa	1003.6 ± 1.2 kg/m3
303.16 K, 25674 kPa	1003.8 ± 1.2 kg/m3
303.16 K, 25700 kPa	1003.9 ± 1.2 kg/m3
303.16 K, 25725 kPa	1003.8 ± 1.2 kg/m3
303.16 K, 25756 kPa	1003.9 ± 1.2 kg/m3
303.16 K, 25781 kPa	1004 ± 1.2 kg/m3
303.16 K, 25807 kPa	1003.9 ± 1.2 kg/m3
303.16 K, 25838 kPa	1004 ± 1.2 kg/m3
303.16 K, 25863 kPa	1004 ± 1.2 kg/m3
303.16 K, 25889 kPa	1004 ± 1.2 kg/m3
303.16 K, 28629 kPa	1005.5 ± 1.2 kg/m3
303.16 K, 28934 kPa	1005.7 ± 1.2 kg/m3
303.16 K, 28965 kPa	1005.6 ± 1.2 kg/m3
303.16 K, 28991 kPa	1005.6 ± 1.2 kg/m3
303.16 K, 29017 kPa	1005.6 ± 1.2 kg/m3
303.16 K, 29049 kPa	1005.7 ± 1.2 kg/m3
303.16 K, 29076 kPa	1005.7 ± 1.2 kg/m3
303.16 K, 29102 kPa	1005.7 ± 1.2 kg/m3
303.16 K, 29134 kPa	1005.8 ± 1.2 kg/m3
303.16 K, 29162 kPa	1005.6 ± 1.2 kg/m3
303.16 K, 29189 kPa	1005.7 ± 1.2 kg/m3
303.16 K, 29220 kPa	1005.8 ± 1.2 kg/m3
303.16 K, 29244 kPa	1005.8 ± 1.2 kg/m3
303.16 K, 29266 kPa	1005.9 ± 1.2 kg/m3
303.16 K, 29288 kPa	1005.9 ± 1.2 kg/m3
303.16 K, 29315 kPa	1005.9 ± 1.2 kg/m3
303.16 K, 29338 kPa	1005.9 ± 1.2 kg/m3
303.16 K, 29360 kPa	1005.9 ± 1.2 kg/m3
303.16 K, 29388 kPa	1005.8 ± 1.2 kg/m3
303.16 K, 29410 kPa	1006 ± 1.2 kg/m3
303.16 K, 29438 kPa	1005.9 ± 1.2 kg/m3
303.16 K, 30312 kPa	1006.3 ± 1.2 kg/m3
303.16 K, 30341 kPa	1006.5 ± 1.2 kg/m3
303.16 K, 30365 kPa	1006.5 ± 1.2 kg/m3
303.16 K, 30389 kPa	1006.5 ± 1.2 kg/m3
303.16 K, 30419 kPa	1006.6 ± 1.2 kg/m3
303.16 K, 30445 kPa	1006.4 ± 1.2 kg/m3
303.16 K, 30470 kPa	1006.4 ± 1.2 kg/m3
303.16 K, 30494 kPa	1006.6 ± 1.2 kg/m3
303.16 K, 30523 kPa	1006.6 ± 1.2 kg/m3
303.16 K, 30548 kPa	1006.6 ± 1.2 kg/m3
303.16 K, 30572 kPa	1006.6 ± 1.2 kg/m3
303.16 K, 30602 kPa	1006.5 ± 1.2 kg/m3
303.16 K, 30627 kPa	1006.6 ± 1.2 kg/m3
303.16 K, 30652 kPa	1006.6 ± 1.2 kg/m3
303.16 K, 30681 kPa	1006.5 ± 1.2 kg/m3
303.16 K, 30706 kPa	1006.7 ± 1.2 kg/m3
303.16 K, 30731 kPa	1006.5 ± 1.2 kg/m3
303.16 K, 30761 kPa	1006.7 ± 1.2 kg/m3
303.16 K, 30788 kPa	1006.6 ± 1.2 kg/m3
303.16 K, 30813 kPa	1006.6 ± 1.2 kg/m3
303.16 K, 30838 kPa	1006.7 ± 1.2 kg/m3
303.16 K, 30868 kPa	1006.7 ± 1.2 kg/m3
303.16 K, 30893 kPa	1006.6 ± 1.2 kg/m3
303.16 K, 30923 kPa	1006.7 ± 1.2 kg/m3
303.16 K, 30949 kPa	1006.7 ± 1.2 kg/m3
303.16 K, 30974 kPa	1006.7 ± 1.2 kg/m3
303.16 K, 31005 kPa	1006.9 ± 1.2 kg/m3
303.16 K, 31031 kPa	1006.7 ± 1.2 kg/m3
303.16 K, 31057 kPa	1006.7 ± 1.2 kg/m3
303.16 K, 31087 kPa	1006.8 ± 1.2 kg/m3
303.16 K, 31114 kPa	1006.8 ± 1.2 kg/m3
303.16 K, 31140 kPa	1006.9 ± 1.2 kg/m3
303.16 K, 32264 kPa	1007.5 ± 1.2 kg/m3
303.16 K, 32284 kPa	1007.6 ± 1.2 kg/m3
303.16 K, 32306 kPa	1007.5 ± 1.2 kg/m3
303.16 K, 32325 kPa	1007.5 ± 1.2 kg/m3
303.16 K, 32343 kPa	1007.5 ± 1.2 kg/m3
303.16 K, 32366 kPa	1007.5 ± 1.2 kg/m3
303.16 K, 32385 kPa	1007.4 ± 1.2 kg/m3
303.16 K, 32914 kPa	1007.8 ± 1.2 kg/m3
303.16 K, 32937 kPa	1007.9 ± 1.2 kg/m3
303.16 K, 32956 kPa	1007.7 ± 1.2 kg/m3
303.16 K, 32976 kPa	1007.7 ± 1.2 kg/m3
303.16 K, 33185 kPa	1007.9 ± 1.2 kg/m3
303.16 K, 33209 kPa	1008 ± 1.2 kg/m3
303.16 K, 33228 kPa	1008 ± 1.2 kg/m3
303.16 K, 33252 kPa	1007.9 ± 1.2 kg/m3
303.16 K, 33272 kPa	1008.1 ± 1.2 kg/m3
303.16 K, 33292 kPa	1008 ± 1.2 kg/m3
303.16 K, 33317 kPa	1007.9 ± 1.2 kg/m3
303.16 K, 33337 kPa	1008.1 ± 1.2 kg/m3
303.16 K, 33357 kPa	1008.1 ± 1.2 kg/m3
303.16 K, 33377 kPa	1008.1 ± 1.2 kg/m3
303.16 K, 33402 kPa	1008.1 ± 1.2 kg/m3
303.16 K, 33423 kPa	1008 ± 1.2 kg/m3
303.16 K, 33443 kPa	1008.1 ± 1.2 kg/m3
303.16 K, 33467 kPa	1008.1 ± 1.2 kg/m3
303.16 K, 33487 kPa	1008.1 ± 1.2 kg/m3
303.16 K, 33512 kPa	1008.1 ± 1.2 kg/m3
303.16 K, 33533 kPa	1008.1 ± 1.2 kg/m3
303.16 K, 33553 kPa	1008.1 ± 1.2 kg/m3
303.16 K, 33574 kPa	1008.3 ± 1.2 kg/m3
303.16 K, 33599 kPa	1008.2 ± 1.2 kg/m3
303.16 K, 33621 kPa	1008.2 ± 1.2 kg/m3
303.16 K, 33642 kPa	1008.3 ± 1.2 kg/m3
303.16 K, 33668 kPa	1008.3 ± 1.2 kg/m3
303.16 K, 33689 kPa	1008.3 ± 1.2 kg/m3
303.16 K, 33711 kPa	1008.2 ± 1.2 kg/m3
303.16 K, 33733 kPa	1008.1 ± 1.2 kg/m3
303.16 K, 33759 kPa	1008.2 ± 1.2 kg/m3
303.16 K, 33782 kPa	1008.3 ± 1.2 kg/m3
303.16 K, 33805 kPa	1008.2 ± 1.2 kg/m3
303.16 K, 33833 kPa	1008.2 ± 1.2 kg/m3
303.16 K, 33857 kPa	1008.4 ± 1.2 kg/m3
303.16 K, 33886 kPa	1008.2 ± 1.2 kg/m3
303.17 K, 238.4 kPa	988.6 ± 1.2 kg/m3
303.17 K, 238.6 kPa	988.5 ± 1.2 kg/m3
303.17 K, 239.1 kPa	988.5 ± 1.2 kg/m3
303.17 K, 272.8 kPa	988.5 ± 1.2 kg/m3
303.17 K, 273 kPa	988.7 ± 1.2 kg/m3
303.17 K, 273.3 kPa	988.6 ± 1.2 kg/m3
303.17 K, 273.5 kPa	988.6 ± 1.2 kg/m3
303.17 K, 273.6 kPa	988.6 ± 1.2 kg/m3
303.17 K, 355.5 kPa	988.6 ± 1.2 kg/m3
303.17 K, 355.8 kPa	988.5 ± 1.2 kg/m3
303.17 K, 356.5 kPa	988.6 ± 1.2 kg/m3
303.17 K, 356.8 kPa	988.5 ± 1.2 kg/m3
303.17 K, 357.2 kPa	988.6 ± 1.2 kg/m3
303.17 K, 357.5 kPa	988.6 ± 1.2 kg/m3
303.17 K, 361 kPa	988.7 ± 1.2 kg/m3
303.17 K, 361.7 kPa	988.5 ± 1.2 kg/m3
303.17 K, 362 kPa	988.6 ± 1.2 kg/m3
303.17 K, 362.4 kPa	988.5 ± 1.2 kg/m3
303.17 K, 362.7 kPa	988.6 ± 1.2 kg/m3
303.17 K, 363.1 kPa	988.6 ± 1.2 kg/m3
303.17 K, 363.8 kPa	988.7 ± 1.2 kg/m3
303.17 K, 364 kPa	988.7 ± 1.2 kg/m3
303.17 K, 375.4 kPa	988.5 ± 1.2 kg/m3
303.17 K, 376.3 kPa	988.6 ± 1.2 kg/m3
303.17 K, 376.5 kPa	988.7 ± 1.2 kg/m3 and 988.6 ± 1.2 kg/m3
303.17 K, 377.2 kPa	988.6 ± 1.2 kg/m3
303.17 K, 378.5 kPa	988.6 ± 1.2 kg/m3
303.17 K, 1469.1 kPa	989.4 ± 1.2 kg/m3
303.17 K, 1484.4 kPa	989.2 ± 1.2 kg/m3
303.17 K, 1497.4 kPa	989.2 ± 1.2 kg/m3
303.17 K, 1510.5 kPa	989.4 ± 1.2 kg/m3
303.17 K, 1526.6 kPa	989.4 ± 1.2 kg/m3
303.17 K, 1540 kPa	989.3 ± 1.2 kg/m3
303.17 K, 1553.5 kPa	989.4 ± 1.2 kg/m3
